According to article PMC10175918 (Communications Biology, 2023):
Read-outs that look alike come from different tables or passages of the source.

Assays:
Experiment in all cases: TGFα-shedding assay-based GPCR screening with chimeric Gα subunit proteins
Format in all cases: cell-based
348 GPCRs [1] = target: T1, 348 GPCRs (Homo sapiens, UniProt P32247); settings: 10µM, Favipiravir 100μM
T1 construct: expressed in transfected cells; host or cells: HEK293A
T1 sequence (P32247 1-399): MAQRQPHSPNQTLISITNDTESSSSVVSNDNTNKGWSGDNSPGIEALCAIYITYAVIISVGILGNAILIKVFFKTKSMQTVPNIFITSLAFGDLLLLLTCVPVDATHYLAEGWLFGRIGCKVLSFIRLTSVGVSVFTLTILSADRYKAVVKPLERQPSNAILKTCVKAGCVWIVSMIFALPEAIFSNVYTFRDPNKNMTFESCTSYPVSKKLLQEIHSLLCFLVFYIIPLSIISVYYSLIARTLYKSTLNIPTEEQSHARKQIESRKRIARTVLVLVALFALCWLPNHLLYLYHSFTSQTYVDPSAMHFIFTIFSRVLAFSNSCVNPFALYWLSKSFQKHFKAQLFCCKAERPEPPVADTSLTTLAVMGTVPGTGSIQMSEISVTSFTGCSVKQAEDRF

348 GPCRs [2] = target: 348 GPCRs (Homo sapiens, UniProt P30872); settings: 10µM, Favipiravir 100μM
348 GPCRs [3] = target: 348 GPCRs (Homo sapiens, UniProt P21918); settings: 10µM, Favipiravir 100μM
348 GPCRs [4] = target: T2, 348 GPCRs (Homo sapiens, UniProt Q9NYW1); settings: 10µM, Favipiravir 100μM
T2 construct: expressed in transfected cells; host or cells: HEK293A
T2 sequence (Q9NYW1 1-312): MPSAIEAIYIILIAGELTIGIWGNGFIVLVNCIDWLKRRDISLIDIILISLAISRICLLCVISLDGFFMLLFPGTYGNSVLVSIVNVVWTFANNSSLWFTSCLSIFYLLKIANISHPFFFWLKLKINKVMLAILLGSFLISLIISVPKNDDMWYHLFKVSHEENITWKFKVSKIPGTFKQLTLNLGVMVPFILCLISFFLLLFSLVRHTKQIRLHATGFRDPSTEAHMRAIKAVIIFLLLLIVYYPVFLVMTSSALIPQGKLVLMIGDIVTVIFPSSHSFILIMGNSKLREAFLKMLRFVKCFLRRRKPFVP

348 GPCRs [5] = target: T3, 348 GPCRs (Homo sapiens, UniProt P41594); settings: 10µM, Favipiravir 100μM
T3 construct: expressed in transfected cells; host or cells: HEK293A

348 GPCRs [6] = target: T4, 348 GPCRs (Homo sapiens, UniProt Q96P69); settings: 10µM, Favipiravir 100μM
T4 construct: expressed in transfected cells; host or cells: HEK293A

348 GPCRs [7] = target: T5, 348 GPCRs (Homo sapiens, UniProt Q9Y2T5); settings: 10µM
T5 construct: expressed in transfected cells; host or cells: HEK293A

348 GPCRs [8] = target: T6, 348 GPCRs (Homo sapiens, UniProt P41231); settings: 10µM
T6 construct: expressed in transfected cells; host or cells: HEK293A

348 GPCRs [9] = target: T7, 348 GPCRs (Homo sapiens, UniProt Q8IZF7); settings: 10µM
T7 construct: expressed in transfected cells; host or cells: HEK293A
T7 sequence (Q8IZF7 1-708): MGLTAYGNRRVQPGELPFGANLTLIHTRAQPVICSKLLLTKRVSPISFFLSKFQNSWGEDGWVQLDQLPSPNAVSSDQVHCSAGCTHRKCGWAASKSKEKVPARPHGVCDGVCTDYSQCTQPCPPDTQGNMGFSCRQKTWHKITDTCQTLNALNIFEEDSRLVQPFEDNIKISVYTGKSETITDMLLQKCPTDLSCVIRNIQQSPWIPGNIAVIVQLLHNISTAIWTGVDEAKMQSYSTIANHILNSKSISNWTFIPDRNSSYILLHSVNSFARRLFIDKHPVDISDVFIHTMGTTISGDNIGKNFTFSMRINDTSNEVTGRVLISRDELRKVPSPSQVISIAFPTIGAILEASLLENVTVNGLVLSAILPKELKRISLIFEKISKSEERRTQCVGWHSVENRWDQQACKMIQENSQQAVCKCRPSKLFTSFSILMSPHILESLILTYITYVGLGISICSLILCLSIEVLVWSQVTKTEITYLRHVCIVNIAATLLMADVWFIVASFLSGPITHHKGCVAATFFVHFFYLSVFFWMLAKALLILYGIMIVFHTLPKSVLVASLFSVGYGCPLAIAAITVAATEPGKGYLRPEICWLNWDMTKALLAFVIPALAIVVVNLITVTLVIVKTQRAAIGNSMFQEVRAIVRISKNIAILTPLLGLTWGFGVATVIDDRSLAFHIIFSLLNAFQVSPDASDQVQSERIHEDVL

348 GPCRs [10] = target: T8, 348 GPCRs (Homo sapiens, UniProt Q8IZ08); settings: 10µM, Favipiravir 100μM
T8 construct: expressed in transfected cells; host or cells: HEK293A

348 GPCRs [11] = target: 348 GPCRs (Homo sapiens, UniProt P35372); settings: OPRM1, read-out: % GPCR activation compared to TPA, OPRM1 (opioid receptor, mu 1 (MOR1)); 10µM, Favipiravir 100μM
348 GPCRs [12] = target: 348 GPCRs (Homo sapiens, UniProt P14416); settings: 10µM, Favipiravir 100μM
348 GPCRs [13] = target: T9, 348 GPCRs (Homo sapiens, UniProt P22888); settings: 10µM, Favipiravir 100μM
T9 construct: expressed in transfected cells; host or cells: HEK293A

348 GPCRs [14] = target: T10, 348 GPCRs (Homo sapiens, UniProt P13945); settings: 10µM, Favipiravir 100μM
T10 construct: expressed in transfected cells; host or cells: HEK293A

[15] = read-out: % GPCR activation compared to TPA, BB3 (Bombesin receptor, subtype 3)
[16] = read-out: % GPCR activation compared to TPA, SSTR1 (somatostatin receptor 1)
[17] = read-out: % GPCR activation compared to TPA, D5 (dopamine receptor D5)
[18] = read-out: % GPCR activation compared to TPA, TAS2R9 (taste receptor, type 2, member 9)
[19] = read-out: % GPCR activation compared to TPA, GRM5 (glutamate receptor, metabotropic 5)
[20] = read-out: % GPCR activation compared to TPA, GPR78 (G Protein-Coupled Receptor 78)
[21] = read-out: % GPCR activation compared to TPA, GPCR GPR52 (G protein-coupled receptor 52)
[22] = read-out: % GPCR activation compared to TPA, GPCR P2Y2 (purinergic receptor P2Y, G-protein coupled, 2)
[23] = read-out: % GPCR activation compared to TPA, GPCR GPR111 (G-protein-coupled receptor 111 (ADGRF2))
[24] = read-out: % GPCR activation compared to TPA, GPR135 (G Protein-Coupled Receptor 135)
[25] = read-out: % GPCR activation compared to TPA, D2 (dopamine receptor D2)
[26] = read-out: % GPCR activation compared to TPA, LHCGR (luteinizing hormone/choriogonadotropin receptor)
[27] = read-out: % GPCR activation compared to TPA, ADRB3 (adrenoceptor beta 3)

T4 sequence (Q96P69 whole entry): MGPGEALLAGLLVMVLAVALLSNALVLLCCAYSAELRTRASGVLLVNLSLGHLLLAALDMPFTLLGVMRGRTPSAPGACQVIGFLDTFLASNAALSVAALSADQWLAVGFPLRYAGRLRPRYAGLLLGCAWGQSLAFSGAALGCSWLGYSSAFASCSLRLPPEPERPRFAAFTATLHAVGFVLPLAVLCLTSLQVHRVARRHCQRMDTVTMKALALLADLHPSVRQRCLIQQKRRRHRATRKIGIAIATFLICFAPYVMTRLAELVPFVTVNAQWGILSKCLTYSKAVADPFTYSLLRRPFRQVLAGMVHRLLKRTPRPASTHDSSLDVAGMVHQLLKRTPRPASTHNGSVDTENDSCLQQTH
T10 sequence (P13945 whole entry): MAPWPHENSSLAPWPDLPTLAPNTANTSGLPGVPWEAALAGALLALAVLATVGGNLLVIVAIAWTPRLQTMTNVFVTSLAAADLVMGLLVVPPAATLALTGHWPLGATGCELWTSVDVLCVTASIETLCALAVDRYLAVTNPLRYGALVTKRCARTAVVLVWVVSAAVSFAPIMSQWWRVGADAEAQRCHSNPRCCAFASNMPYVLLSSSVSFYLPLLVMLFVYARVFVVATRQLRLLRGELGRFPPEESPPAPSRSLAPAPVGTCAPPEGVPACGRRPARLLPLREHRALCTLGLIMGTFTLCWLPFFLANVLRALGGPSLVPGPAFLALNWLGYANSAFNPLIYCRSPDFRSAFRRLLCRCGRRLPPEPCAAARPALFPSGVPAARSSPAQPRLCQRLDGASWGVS
T8 sequence (Q8IZ08 whole entry): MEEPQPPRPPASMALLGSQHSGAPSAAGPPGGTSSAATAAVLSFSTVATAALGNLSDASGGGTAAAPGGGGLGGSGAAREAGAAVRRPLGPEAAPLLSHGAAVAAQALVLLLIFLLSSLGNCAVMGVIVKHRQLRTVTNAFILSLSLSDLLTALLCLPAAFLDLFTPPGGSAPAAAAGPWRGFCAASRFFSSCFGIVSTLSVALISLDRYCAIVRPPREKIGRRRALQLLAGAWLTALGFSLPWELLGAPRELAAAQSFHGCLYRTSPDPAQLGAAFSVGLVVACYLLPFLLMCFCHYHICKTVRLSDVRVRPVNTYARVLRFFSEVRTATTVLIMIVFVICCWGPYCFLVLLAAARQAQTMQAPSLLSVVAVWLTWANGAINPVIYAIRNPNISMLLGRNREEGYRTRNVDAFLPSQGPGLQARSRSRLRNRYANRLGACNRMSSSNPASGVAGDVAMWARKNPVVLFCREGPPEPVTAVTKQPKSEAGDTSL
348 GPCRs (Homo sapiens, UniProt P30872), sequence (P30872 whole entry): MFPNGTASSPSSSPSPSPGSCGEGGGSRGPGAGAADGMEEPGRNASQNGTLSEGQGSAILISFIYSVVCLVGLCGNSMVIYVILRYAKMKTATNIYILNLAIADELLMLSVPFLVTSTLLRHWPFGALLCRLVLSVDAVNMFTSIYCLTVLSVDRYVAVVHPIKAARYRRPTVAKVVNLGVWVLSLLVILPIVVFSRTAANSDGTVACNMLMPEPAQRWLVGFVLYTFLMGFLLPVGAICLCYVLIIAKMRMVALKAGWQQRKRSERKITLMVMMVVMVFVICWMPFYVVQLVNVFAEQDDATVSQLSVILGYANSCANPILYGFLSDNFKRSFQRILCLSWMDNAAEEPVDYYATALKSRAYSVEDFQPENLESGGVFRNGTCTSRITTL
348 GPCRs (Homo sapiens, UniProt P21918), sequence (P21918 whole entry): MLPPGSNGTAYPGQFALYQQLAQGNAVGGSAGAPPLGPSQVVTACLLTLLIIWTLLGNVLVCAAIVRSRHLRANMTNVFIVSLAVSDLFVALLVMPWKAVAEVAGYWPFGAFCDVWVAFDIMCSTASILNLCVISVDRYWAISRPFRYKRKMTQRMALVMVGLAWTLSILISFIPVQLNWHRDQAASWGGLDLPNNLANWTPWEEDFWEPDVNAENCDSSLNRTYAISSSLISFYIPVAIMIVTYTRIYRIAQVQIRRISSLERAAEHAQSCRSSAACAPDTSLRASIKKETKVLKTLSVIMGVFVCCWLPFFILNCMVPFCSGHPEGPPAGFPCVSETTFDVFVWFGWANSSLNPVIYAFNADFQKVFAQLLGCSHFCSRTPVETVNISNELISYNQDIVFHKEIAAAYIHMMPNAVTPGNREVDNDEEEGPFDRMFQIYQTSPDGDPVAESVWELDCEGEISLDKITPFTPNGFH
T6 sequence (P41231 whole entry): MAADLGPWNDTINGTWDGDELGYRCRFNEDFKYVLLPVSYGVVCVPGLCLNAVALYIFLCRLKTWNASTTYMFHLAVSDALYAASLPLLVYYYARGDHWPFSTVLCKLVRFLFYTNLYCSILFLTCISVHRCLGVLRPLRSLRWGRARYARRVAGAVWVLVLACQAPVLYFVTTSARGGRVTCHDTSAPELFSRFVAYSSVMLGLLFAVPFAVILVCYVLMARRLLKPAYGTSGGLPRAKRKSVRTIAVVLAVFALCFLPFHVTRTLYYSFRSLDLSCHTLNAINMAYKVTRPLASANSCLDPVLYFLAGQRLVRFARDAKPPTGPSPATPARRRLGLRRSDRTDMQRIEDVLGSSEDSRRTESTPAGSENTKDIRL
T3 sequence (P41594 21-1212): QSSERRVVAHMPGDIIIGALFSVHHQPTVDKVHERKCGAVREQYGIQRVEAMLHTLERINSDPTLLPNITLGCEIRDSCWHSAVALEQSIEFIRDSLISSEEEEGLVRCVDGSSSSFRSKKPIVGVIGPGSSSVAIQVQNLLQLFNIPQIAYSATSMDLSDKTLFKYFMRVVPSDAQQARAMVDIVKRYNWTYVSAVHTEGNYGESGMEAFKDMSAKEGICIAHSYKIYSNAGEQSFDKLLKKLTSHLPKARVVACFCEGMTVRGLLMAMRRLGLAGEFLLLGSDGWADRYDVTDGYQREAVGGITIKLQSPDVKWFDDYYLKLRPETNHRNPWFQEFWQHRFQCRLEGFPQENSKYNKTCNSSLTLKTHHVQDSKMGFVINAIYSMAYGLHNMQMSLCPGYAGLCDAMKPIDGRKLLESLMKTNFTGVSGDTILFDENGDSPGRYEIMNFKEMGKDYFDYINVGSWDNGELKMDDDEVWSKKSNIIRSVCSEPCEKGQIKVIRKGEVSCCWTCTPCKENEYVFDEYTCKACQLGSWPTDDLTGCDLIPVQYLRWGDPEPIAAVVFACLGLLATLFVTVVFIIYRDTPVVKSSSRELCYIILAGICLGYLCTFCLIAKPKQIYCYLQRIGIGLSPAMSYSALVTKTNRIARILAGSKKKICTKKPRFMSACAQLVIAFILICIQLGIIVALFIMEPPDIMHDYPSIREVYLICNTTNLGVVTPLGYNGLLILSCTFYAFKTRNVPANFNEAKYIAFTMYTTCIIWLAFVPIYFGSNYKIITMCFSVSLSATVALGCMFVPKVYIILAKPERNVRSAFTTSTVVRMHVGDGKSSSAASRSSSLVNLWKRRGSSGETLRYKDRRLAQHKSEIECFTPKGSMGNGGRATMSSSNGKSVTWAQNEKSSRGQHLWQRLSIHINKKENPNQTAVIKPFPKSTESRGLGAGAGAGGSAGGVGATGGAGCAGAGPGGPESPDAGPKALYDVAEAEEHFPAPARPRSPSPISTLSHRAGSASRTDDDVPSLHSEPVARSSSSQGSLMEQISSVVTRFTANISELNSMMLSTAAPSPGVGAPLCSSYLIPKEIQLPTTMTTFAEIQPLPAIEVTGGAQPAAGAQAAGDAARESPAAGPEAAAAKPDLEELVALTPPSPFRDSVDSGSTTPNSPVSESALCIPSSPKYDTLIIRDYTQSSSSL
348 GPCRs (Homo sapiens, UniProt P14416), sequence (P14416 whole entry): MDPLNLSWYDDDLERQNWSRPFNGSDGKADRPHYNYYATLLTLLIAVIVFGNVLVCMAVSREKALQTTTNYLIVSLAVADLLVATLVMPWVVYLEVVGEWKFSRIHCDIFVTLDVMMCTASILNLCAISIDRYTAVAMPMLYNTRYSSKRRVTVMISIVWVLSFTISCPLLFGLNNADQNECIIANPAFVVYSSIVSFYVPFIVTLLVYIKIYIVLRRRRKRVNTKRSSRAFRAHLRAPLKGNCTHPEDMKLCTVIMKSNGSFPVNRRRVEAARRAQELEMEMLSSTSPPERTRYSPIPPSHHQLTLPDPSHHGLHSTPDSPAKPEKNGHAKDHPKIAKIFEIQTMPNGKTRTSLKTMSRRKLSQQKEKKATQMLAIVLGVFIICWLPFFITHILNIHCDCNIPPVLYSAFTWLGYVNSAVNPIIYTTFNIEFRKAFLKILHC
T5 sequence (Q9Y2T5 whole entry): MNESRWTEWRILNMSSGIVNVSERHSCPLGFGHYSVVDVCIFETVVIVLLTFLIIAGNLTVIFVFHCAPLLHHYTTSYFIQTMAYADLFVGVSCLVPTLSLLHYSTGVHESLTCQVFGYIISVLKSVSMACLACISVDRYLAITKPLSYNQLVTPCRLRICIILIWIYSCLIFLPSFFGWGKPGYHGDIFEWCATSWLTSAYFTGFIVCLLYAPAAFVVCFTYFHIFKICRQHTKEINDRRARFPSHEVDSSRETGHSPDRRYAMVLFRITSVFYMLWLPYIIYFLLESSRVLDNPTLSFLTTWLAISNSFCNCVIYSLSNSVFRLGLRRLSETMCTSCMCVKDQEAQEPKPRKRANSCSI
348 GPCRs (Homo sapiens, UniProt P35372), sequence (P35372 whole entry): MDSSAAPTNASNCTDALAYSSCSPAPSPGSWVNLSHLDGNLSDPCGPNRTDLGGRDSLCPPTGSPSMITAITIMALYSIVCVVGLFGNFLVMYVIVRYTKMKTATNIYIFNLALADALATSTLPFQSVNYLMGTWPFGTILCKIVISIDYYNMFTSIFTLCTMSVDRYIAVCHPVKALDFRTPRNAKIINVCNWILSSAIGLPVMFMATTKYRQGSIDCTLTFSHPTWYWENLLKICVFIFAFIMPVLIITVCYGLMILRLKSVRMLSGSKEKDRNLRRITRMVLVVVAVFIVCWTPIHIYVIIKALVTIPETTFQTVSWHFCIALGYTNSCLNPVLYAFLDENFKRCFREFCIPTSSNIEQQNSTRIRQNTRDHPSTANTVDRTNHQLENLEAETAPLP

SMILES | activation at 10 µM (348 GPCRs [11]) [%] | activation at 10 µM (348 GPCRs [1]; [15]) [%] | activation at 10 µM (348 GPCRs [2]; [16]) [%] | activation at 100 µM (348 GPCRs [3]; [17]) [%] | activation at 10 µM (348 GPCRs [4]; [18]) [%] | activation at 10 µM (348 GPCRs [5]; [19]) [%] | activation at 100 µM (348 GPCRs [6]; [20]) [%] | activation at 10 µM (348 GPCRs [7]; [21]) [%] | activation at 10 µM (348 GPCRs [8]; [22]) [%] | activation at 10 µM (348 GPCRs [9]; [23]) [%] | activation at 100 µM (348 GPCRs [10]; [24]) [%] | activation at 100 µM (348 GPCRs [12]; [25]) [%] | activation at 100 µM (348 GPCRs [13]; [26]) [%] | activation at 10 µM (348 GPCRs [14]; [27]) [%] | further results
CC(C)C(=O)OC[C@H]1O[C@@H](n2ccc(NO)nc2=O)[C@H](O)[C@@H]1O [molnupiravir] | -3.97 |  |  |  |  |  |  |  |  |  |  |  |  |  | activation at 10 µM (348 GPCRs [1]; BB3 (Bombesin receptor, subtype 3), read-out: % GPCR activation compared to TPA): 0.338%; activation at 10 µM (348 GPCRs [2]; SSTR1 (somatostatin receptor 1), read-out: % GPCR activation compared to TPA): 0.451%; activation at 100 µM (348 GPCRs [3]; D5 (dopamine receptor D5), read-out: % GPCR activation compared to TPA): -1.18%; activation at 10 µM (348 GPCRs [4]; TAS2R9 (taste receptor, type 2, member 9), read-out: % GPCR activation compared to TPA): 0.0718%; activation at 10 µM (348 GPCRs [5]; GRM5 (glutamate receptor, metabotropic 5), read-out: % GPCR activation compared to TPA): 0.891%; activation at 100 µM (348 GPCRs [6]; GPR78 (G Protein-Coupled Receptor 78), read-out: % GPCR activation compared to TPA): -0.581%; activation at 10 µM (348 GPCRs [7]; GPCR GPR52 (G protein-coupled receptor 52), read-out: % GPCR activation compared to TPA): -1.34%; activation at 10 µM (348 GPCRs [8]; GPCR P2Y2 (purinergic receptor P2Y, G-protein coupled, 2), read-out: % GPCR activation compared to TPA): -58.1%; activation at 10 µM (348 GPCRs [9]; GPCR GPR111 (G-protein-coupled receptor 111 (ADGRF2)), read-out: % GPCR activation compared to TPA): 0.307%; activation at 100 µM (348 GPCRs [10]; GPR135 (G Protein-Coupled Receptor 135), read-out: % GPCR activation compared to TPA): -1.53%; activation at 100 µM (348 GPCRs [12]; D2 (dopamine receptor D2), read-out: % GPCR activation compared to TPA): -0.0472%; activation at 100 µM (348 GPCRs [13]; LHCGR (luteinizing hormone/choriogonadotropin receptor), read-out: % GPCR activation compared to TPA): -0.797%; activation at 10 µM (348 GPCRs [14]; ADRB3 (adrenoceptor beta 3), read-out: % GPCR activation compared to TPA): -0.737%
CCC(CC)COC(=O)[C@H](C)N[P@](=O)(OC[C@H]1O[C@@](C#N)(c2ccc3c(N)ncnn23)[C@H](O)[C@@H]1O)Oc1ccccc1 [remdesivir] | -2.36 | 2.03 | 2.79 | 7.06 | 1.69 | 2.34 | 2.44 | -0.476 | -6.22 | -1.09 | -2.35 | 6.53 | 0.234 | -0.789 | 
CC(C)OC(=O)[C@H](C)N[P@](=O)(OC[C@H]1O[C@@H](n2ccc(=O)[nH]c2=O)[C@](C)(F)[C@@H]1O)Oc1ccccc1 [sofosbuvir] | -0.878 | 7.68 | -0.638 | -1.22 | -0.791 | 3.55 | 2.01 | -2.66 | -41.7 | -0.382 | -2.6 | -0.334 | 1.92 | -0.333 | 
